Results as given in US5488035A (priority 1991, dated 1996).
Like-named read-outs stand apart in the source and are kept apart here. Bridge positions count the residues as written; N and C are the ends. Peptide text beside a SMILES is read from it.

Tests used:
Assay type in all cases: cell-based
[1] = system: Fusarium graminearum, isolate 8 (FGR 008); conditions: Example 2, scale 0-4
[2] = system: Sclerotinia trifoliorum, isolate 1; test: Antifungal activity score; conditions: Example 1, 100 μg/ml
Protocol: (§1) The tachyplesin was used at a concentration of 100 μg/ml as determined by absorption spectrum was screened against four common plant pathogens in both crude and oxidized forms. Antifungal activity was scored on a scale of 0 to 4, with 0 being no inhibition observed relative to a water control, and 4 being complete inhibition. Two reps were done for each treatment.

[3] = system: SSC ascospores (Sclerotinia sclerotiorum); test: Antifungal activity score, decreasing concentrations; conditions: Example 2, scale 0-4
Protocol: as §1, with “treatment. Results were as follows:” for “treatment.”
(§2) Decreasing tested concentrations of tachyplesin were against the preceding four organisms plus Fusarium moniliforme and Sclerotinia sclerotiorum to determine the minimum inhibitory concentration, and this was compared with other antimicrobial compounds.

[4] = system: FMO 001 (Fusarium moniliforme); test: as above; conditions: Example 2, scale 0-4
Protocol: as §1, with “treatment. Results were as follows:” for “treatment.”
as §2

[5] = system: Aspergillus flavus, isolate 1 (AFL 001); test: as above; conditions: Example 2, scale 0-4
Protocol: as §1, with “treatment. Results were as follows:” for “treatment.”
as §2

[6] = system: SSC 002 (Sclerotinia sclerotiorum); test: as above; conditions: Example 2, scale 0-4
Protocol: as §1, with “treatment. Results were as follows:” for “treatment.”
as §2

[7] = system: Fusarium graminearum, isolate 5 (FGR 005); conditions: for Score (antifungal activity), Fusarium graminearum, isolate 5: Example 1, 100 μg/ml; for Score FGR 005: Example 2, scale 0-4
[8] = system: FMO 001 (Fusarium moniliforme); test: Minimum inhibitory concentration; conditions: MIC Comparisons
Description: as §2

[9] = system: SSC 002 (Sclerotinia sclerotiorum); test: Minimum inhibitory concentration; conditions: MIC Comparisons
Description: as §2

[10] = system: FGR 005 (Fusarium graminearum); conditions: MIC Comparisons
[11] = system: AFL 001 (Aspergillus flavus); test: Minimum inhibitory concentration; conditions: for MIC AFL 001: MIC Comparisons; for Dependence of MIC on buffer pH, AFL 001: buffer pHs of from 5.0 to 8.0
Protocol: Decreasing tested concentrations of tachyplesin were against the preceding four organisms plus Fusarium moniliforme and Sclerotinia sclerotiorum to determine the minimum inhibitory concentration, and this was compared with other antimicrobial compounds. Results were as follows:
The MICs of tachyplesin, defensin and hordothionin (μg/ml) were measured against FGR 008 and AFL 001 across a range of buffer pHs and ionic strengths to determine their suitability as plant antimicrobials under varying conditions.

[12] = system: FGR 008 (Fusarium graminearum)

Compound: tachyplesin [tachyplesin crude]
- Score FGR 008 ([1]; 1.56 μg/ml (0.7 μM)): 0.0
- Score FGR 008 ([1]; 3.13 μg/ml (1.4 μM)): 0.0
- Score FGR 008 ([1]; 6.25 μg/ml (2.8 μM)): 0.0
- Score FGR 008 ([1]; 12.5 μg/ml (5.6 μM)): 3.75
- Score FGR 008 ([1]; 25 μg/ml (11.1 μM)): 4.0
- Score FGR 008 ([1]; 50 μg/ml (22.2 μM)): 4.0
- Score FGR 008 ([1]; 100 μg/ml (44.4 μM)): 4.0
- Score (antifungal activity), Sclerotinia trifoliorum, isolate 1 [2]: 4.0
- Score SSC ascospores ([3]; 1.56 μg/ml (0.7 μM)): 0.0
- Score SSC ascospores ([3]; 3.13 μg/ml (1.4 μM)): 0.0
- Score SSC ascospores ([3]; 6.25 μg/ml (2.8 μM)): 0.0
- Score SSC ascospores ([3]; 12.5 μg/ml (5.6 μM)): 4.0
- Score SSC ascospores ([3]; 25 μg/ml (11.1 μM)): 4.0
- Score SSC ascospores ([3]; 50 μg/ml (22.2 μM)): 4.0
- Score SSC ascospores ([3]; 100 μg/ml (44.4 μM)): 4.0
- Score FMO 001 ([4]; 1.56 μg/ml (0.7 μM)): 0.0
- Score FMO 001 ([4]; 3.13 μg/ml (1.4 μM)): 0.0
- Score FMO 001 ([4]; 6.25 μg/ml (2.8 μM)): 0.5
- Score FMO 001 ([4]; 12.5 μg/ml (5.6 μM)): 1.25
- Score FMO 001 ([4]; 25 μg/ml (11.1 μM)): 3.75
- Score FMO 001 ([4]; 50 μg/ml (22.2 μM)): 4.0
- Score FMO 001 ([4]; 100 μg/ml (44.4 μM)): 4.0
- Score AFL 001 ([5]; 1.56 μg/ml (0.7 μM)): 0.0
- Score AFL 001 ([5]; 3.13 μg/ml (1.4 μM)): 0.0
- Score AFL 001 ([5]; 6.25 μg/ml (2.8 μM)): 0.0
- Score AFL 001 ([5]; 12.5 μg/ml (5.6 μM)): 1.0
- Score AFL 001 ([5]; 25 μg/ml (11.1 μM)): 1.5
- Score AFL 001 ([5]; 50 μg/ml (22.2 μM)): 3.25
- Score AFL 001 ([5]; 100 μg/ml (44.4 μM)): 3.5
- Score SSC 002 ([6]; 1.56 μg/ml (0.7 μM)): 0.0
- Score SSC 002 ([6]; 3.13 μg/ml (1.4 μM)): 0.0
- Score SSC 002 ([6]; 6.25 μg/ml (2.8 μM)): 0.0
- Score SSC 002 ([6]; 12.5 μg/ml (5.6 μM)): 1.0
- Score SSC 002 ([6]; 25 μg/ml (11.1 μM)): 4.0
- Score SSC 002 ([6]; 50 μg/ml (22.2 μM)): 4.0
- Score SSC 002 ([6]; 100 μg/ml (44.4 μM)): 4.0
- Score (antifungal activity), Fusarium graminearum, isolate 5 [7]: 4.0
- Score FGR 005 ([7]; 1.56 μg/ml (0.7 μM)): 0.0
- Score FGR 005 ([7]; 3.13 μg/ml (1.4 μM)): 0.0
- Score FGR 005 ([7]; 6.25 μg/ml (2.8 μM)): 1.0
- Score FGR 005 ([7]; 12.5 μg/ml (5.6 μM)): 3.0
- Score FGR 005 ([7]; 25 μg/ml (11.1 μM)): 4.0
- Score FGR 005 ([7]; 50 μg/ml (22.2 μM)): 4.0
- Score FGR 005 ([7]; 100 μg/ml (44.4 μM)): 4.0

Compound: hordothionin
- MIC FMO 001 ([8]; value before parentheses): 45 µg/mL
- MIC FMO 001 ([8]; value in parentheses): 9 µM
- MIC SSC 002 ([9]; value before parentheses): 30 µg/mL
- MIC SSC 002 ([9]; value in parentheses): 6 µM
- MIC FGR 005 ([10]; value before parentheses): 5 µg/mL
- MIC FGR 005 ([10]; value in parentheses): 1 µM
- MIC AFL 001 ([11]; value before parentheses): 15 µg/mL
- MIC AFL 001 ([11]; value in parentheses): 3 µM
- Dependence of MIC on buffer pH, AFL 001 [11]: None of the antimicrobials showed a discernible trend or optimum
- Dependence of MIC on buffer pH, FGR 008 ([12]; buffer pHs of from 5.0 to 8.0): None of the antimicrobials showed a discernible trend or optimum

Compound: CMIII
- MIC FMO 001 ([8]; value before parentheses): 18.2 µg/mL
- MIC FMO 001 ([8]; value in parentheses): 4.6 µM
- MIC SSC 002 ([9]; value before parentheses): 24 µg/mL
- MIC SSC 002 ([9]; value in parentheses): 6 µM
- MIC AFL 001 ([11]; value before parentheses): 60 µg/mL
- MIC AFL 001 ([11]; value in parentheses): 15 µM

Compound: CC[C@H](C)[C@@H]1NC(=O)CNC(=O)[C@H](CCCNC(=N)N)NC(=O)[C@H](Cc2ccc(O)cc2)NC(=O)[C@@H]2CSSC[C@H](NC1=O)C(=O)N[C@@H](Cc1ccc(O)cc1)C(=O)N[C@@H](CCCNC(=N)N)C(=O)N[C@@H](CCCNC(=N)N)C(=O)N[C@H](C(=O)N[C@@H](CCCNC(=N)N)C(=O)O)CSSC[C@H](NC(=O)[C@H](Cc1c[nH]c3ccccc13)NC(=O)[C@@H](N)CCCCN)C(=O)N[C@@H](Cc1ccccc1)C(=O)N[C@@H](CCCNC(=N)N)C(=O)N[C@@H](C(C)C)C(=O)N2 [tachyplesin] (H-KWCFRVCYRGICYRRCR-OH; disulfide 3-16, 7-12; N-terminus assumed)
- MIC FMO 001 ([8]; value before parentheses): 6.25 µg/mL
- MIC FMO 001 ([8]; value in parentheses): 2.8 µM
- MIC SSC 002 ([9]; value before parentheses): 12.5 µg/mL
- MIC SSC 002 ([9]; value in parentheses): 5.6 µM
- MIC AFL 001 ([11]; value before parentheses): 6.25 µg/mL
- MIC AFL 001 ([11]; value in parentheses): 2.8 µM
- Dependence of MIC on buffer pH, AFL 001 [11]: None of the antimicrobials showed a discernible trend or optimum
- Dependence of MIC on buffer pH, FGR 008 [12]: None of the antimicrobials showed a discernible trend or optimum

Compound: tachyplesin [tachyplesin oxidized]
- Score FGR 008 ([1]; 1.56 μg/ml (0.7 μM)): 0.0
- Score FGR 008 ([1]; 3.13 μg/ml (1.4 μM)): 0.0
- Score FGR 008 ([1]; 6.25 μg/ml (2.8 μM)): 2.0
- Score FGR 008 ([1]; 12.5 μg/ml (5.6 μM)): 4.0
- Score FGR 008 ([1]; 25 μg/ml (11.1 μM)): 4.0
- Score FGR 008 ([1]; 50 μg/ml (22.2 μM)): 4.0
- Score FGR 008 ([1]; 100 μg/ml (44.4 μM)): 4.0
- Score (antifungal activity), Sclerotinia trifoliorum, isolate 1 [2]: 4.0
- Score SSC ascospores ([3]; 1.56 μg/ml (0.7 μM)): 0.0
- Score SSC ascospores ([3]; 3.13 μg/ml (1.4 μM)): 0.0
- Score SSC ascospores ([3]; 6.25 μg/ml (2.8 μM)): 3.0
- Score SSC ascospores ([3]; 12.5 μg/ml (5.6 μM)): 4.0
- Score SSC ascospores ([3]; 25 μg/ml (11.1 μM)): 4.0
- Score SSC ascospores ([3]; 50 μg/ml (22.2 μM)): 4.0
- Score SSC ascospores ([3]; 100 μg/ml (44.4 μM)): 4.0
- Score FMO 001 ([4]; 1.56 μg/ml (0.7 μM)): 0.0
- Score FMO 001 ([4]; 3.13 μg/ml (1.4 μM)): 0.5
- Score FMO 001 ([4]; 6.25 μg/ml (2.8 μM)): 1.0
- Score FMO 001 ([4]; 12.5 μg/ml (5.6 μM)): 2.5
- Score FMO 001 ([4]; 25 μg/ml (11.1 μM)): 4.0
- Score FMO 001 ([4]; 50 μg/ml (22.2 μM)): 4.0
- Score FMO 001 ([4]; 100 μg/ml (44.4 μM)): 4.0
- Score AFL 001 ([5]; 1.56 μg/ml (0.7 μM)): 0.0
- Score AFL 001 ([5]; 3.13 μg/ml (1.4 μM)): 0.0
- Score AFL 001 ([5]; 6.25 μg/ml (2.8 μM)): 1.0
- Score AFL 001 ([5]; 12.5 μg/ml (5.6 μM)): 1.5
- Score AFL 001 ([5]; 25 μg/ml (11.1 μM)): 2.75
- Score AFL 001 ([5]; 50 μg/ml (22.2 μM)): 3.75
- Score AFL 001 ([5]; 100 μg/ml (44.4 μM)): 3.75
- Score SSC 002 ([6]; 1.56 μg/ml (0.7 μM)): 0.0
- Score SSC 002 ([6]; 3.13 μg/ml (1.4 μM)): 0.0
- Score SSC 002 ([6]; 6.25 μg/ml (2.8 μM)): 0.0
- Score SSC 002 ([6]; 12.5 μg/ml (5.6 μM)): 4.0
- Score SSC 002 ([6]; 25 μg/ml (11.1 μM)): 4.0
- Score SSC 002 ([6]; 50 μg/ml (22.2 μM)): 4.0
- Score SSC 002 ([6]; 100 μg/ml (44.4 μM)): 4.0
- Score (antifungal activity), Fusarium graminearum, isolate 5 [7]: 4.0
- Score FGR 005 ([7]; 1.56 μg/ml (0.7 μM)): 0.0
- Score FGR 005 ([7]; 3.13 μg/ml (1.4 μM)): 0.0
- Score FGR 005 ([7]; 6.25 μg/ml (2.8 μM)): 2.25
- Score FGR 005 ([7]; 12.5 μg/ml (5.6 μM)): 3.5
- Score FGR 005 ([7]; 25 μg/ml (11.1 μM)): 4.0
- Score FGR 005 ([7]; 50 μg/ml (22.2 μM)): 4.0
- Score FGR 005 ([7]; 100 μg/ml (44.4 μM)): 4.0
